In patent publication US20220112149A1, “DRUG DESIGN METHOD ASSOCIATED WITH NATURAL PRODUCTS, PENTACYCLIC TRITERPENOID COMPOUND, PREPARATION METHOD AND APPLICATIONS THEREOF” (Huazhong Agricultural University, priority 2020, published 2022):
“Also recorded” adds a separate entry of the source.

Tests used:
[1] = test system: Leptin-deficient ob/ob mice; test: GA-02 in ob/ob mice, intraperitoneal; type: in vivo; details: 20 mg/kg i.p.
Method: (§1) Eight-week-old male ob/ob and db/db mice are adapted to the environment under normal conditions for one week. The animals are grouped according to the body weight and blood glucose, 2 cages in each group, 5 animals in each cage. Mice are acclimatized with the vehicle for 3 days in the experimental group (25 μL DMSO/day) and are injected with drugs by intraperitoneal injection (20 mg/kg; 25 μL per injection). Mice in the control group are injected with the same volume of vehicle. The administration starts from 18:00 every day for 14 consecutive days. The body weight and food intake of mice are recorded every day.

[2] = test system: mildly obese mice; test: GA-02 in mildly obese mouse model, intraperitoneal; type: in vivo, C57BL/6 mice
Method: The animal feeding and experiment method are as follows. […] The food intake and body weights of mice in each group are measured every day.

[3] = test system: NF-κB signaling in HEK293 cells; test: NF-κB luciferase reporter gene system; type: cell-based
Method: (§2) FIGS. 10A-10C show the inhibition verification effect chart of GA-02 in Example 5, where FIG. 10A: GA-02 inhibited LPS-induced ICAM-1 expression activity. The inflammatory pathway of HMEC-1 cell was activated by 1 μg/mL LPS, to determine the effect of Celastrol and GA-02 on the expression of ICAM-1 induced by LPS. FIG. 10B: The effect of GA-02 on NF-κB signaling. The NF-κB luciferase reporter plasmid was used to transfect HEK293 cells, and the effects of Celastrol and GA-02 on the NF-κB activity induced by TNF-α were determined; FIG. 10C: qRT-PCR was used to detect mRNA relative expressions of IL-1β, TNF-α, IL-6 and MCP-1.
(§3) ICAM-1 is a downstream effector molecule regulated by NF-κB signaling pathway, and NF-κB plays an important role in regulating the expression of ICAM-1 gene. Celastrol can inhibit the activation of the LPS-induced IKK/NF-κB signaling pathway. In order to validate that GA-02 functions through the IKK/NF-κB signaling pathway, we constructed an NF-κB luciferase reporter gene system to validate the inhibitory activity of Celastrol and GA-02 on the luciferase reporter gene. […] In addition, both Celastrol and GA-02 could down-regulate the mRNA transcription levels of inflammatory factors IL-1β, TNF-α, IL-6 and MCP-1 activated by LPS.

[4] = test system: high-fat-induced obese mice; test: GA-02 in high-fat-induced obese mouse model, intraperitoneal; type: in vivo, C57BL/6 mice
Method: Animals are fed with 60% calorie high-fat diets (purchased from Bio-medicine) for 14 consecutive weeks. […] When the blood glucose is greater than 11 mmol/L and the body weight is greater than 42 g, the administration is started. […] The injection volume is 25 μL per day. In addition, a vehicle (25 μL DMSO) and positive drug (Celastrol) control are established. […] Mice in the blank group and GA-02 treatment group underwent pathological anatomy, to observe the changes in organs before and after administration. Samples are taken to prepare pathological sections.
The models are constructed by feeding high-fat diets to C57BL/6 male mice for 14 weeks. Mice with body weight greater than 42 g and blood glucose higher than 11 mmol/L are obese model mice. Mice are grouped by blood glucose and body weight. Model mice in each group are given three doses of GA-02 (high-, medium-and low-doses, 4, 12, 20 mg/kg, 25 μL/day) by intraperitoneal injection for 14 consecutive days. Mice in the blank control group are given DMSO (25 μL/day) by intraperitoneal injection, and the food intakes and body weights are recorded every day.

[5] = test system: lean mice (about 22 g); details: mouse, in vivo, ip
Method: The animal feeding and experiment method are as follows. Six-week-old SPF-grade C57BL/6 mice (purchased from Hubei Provincial Center for Disease Control and Prevention) are fed in SPF animal house at a room temperature of 22° C., 4 mice per cage. Animals are fed with ordinary mouse feeds (purchased from) for 2 consecutive weeks. Mice are free to take food and the padding is changed every two days, and the body weights and blood glucose are monitored every week. When the body weight reaches 22 g, the administration is started. The drug is dissolved in DMSO solvent and administered by intraperitoneal injection at an injection volume of 25 μL per day. In addition, a vehicle and positive drug control are established. The food intake and body weight changes of mice in each group are measured every day.

[6] = test system: mildly obese mice of weighing about 30 g; test: GA-02 intragastric administration in mildly obese mice; type: in vivo; details: 40 mg/kg intragastric, two weeks
Method: (§4) The lean mice of about 25 g, mildly obese mice of weighing about 30 g, and obese mice of about 45 g are given blank vehicle and high-dose GA-02 (40 mg/kg) by intragastric administration, respectively.

[7] = test system: obese mice of about 45 g; test: GA-02 intragastric administration in obese mice; type: in vivo; details: 40 mg/kg intragastric, two weeks
Method: as §4

[8] = test system: mRNA of IL-1β, TNF-α, IL-6 and MCP-1; test: qRT-PCR of inflammatory factor mRNA; type: cell-based; details: activated by LPS
Method: as §2, §3

[9] = test system: Leptin receptor-deficient db/db mice; test: GA-02 in db/db mice, intraperitoneal; type: in vivo; details: 20 mg/kg i.p., 14 days
Method: as §1

[10] = high-dose (20 mg/kg) i.p., second day
[11] = high-dose (20 mg/kg) i.p., third day
[12] = low-, medium- and high-dose (4, 12, 20 mg/kg) i.p.
[13] = low-, medium- and high-dose (4, 12, 20 mg/kg) i.p., 14 days

CC1(C(=O)O)CCC2(C)CCC3(C)C(=CC(=O)C4C5(C)C=C(O)C(=O)C(C)(C)C5CCC43C)C2C1 (centres unmarked) [GA-02, 3,11-dicarbonyl-1,12-diene-2-hydroxy-oleanane-30 carboxylic acid]
food intake compared with the blank vehicle group ([1]; 14 days): reduced, but it is not significant | overall decrease in body weight ([1]; 14 days): not significant | body weight increase ([1]; in the first five days, later dropped to the initial body weight): 10% | food intake and body weight vs vehicle control group ([2]; high-dose i.p., mild obesity group, body weight of about 28 g): significantly lower | effect on suppressing appetite and reducing body weight (summary) ([2]; intraperitoneal injection, mildly obese mice): significant effect | inhibition of NF-κB reporter fluorescence compared with Celastrol ([3]; 10 μM): equivalent to that of 1 μM Celastrol | inhibition of the fluorescence intensity, concentration dependence ([3]; different concentrations): concentration-dependent manner | accumulated fats in the visceral tissues ([4]; after administration for two weeks, dissection): completely dissipated | average daily food intake decreased compared to the vehicle control group ([4]; first week, high dose 20 mg/kg i.p.): 63.2% | average daily food intake ([4]; first week, high dose 20 mg/kg i.p., vehicle 2.31±0.18 g): 0.85 ± 0.23 g | average daily food intake decreased compared to the vehicle control group ([4]; first week, low dose 4 mg/kg i.p.): 20.8% | average daily food intake ([4]; first week, low dose 4 mg/kg i.p., vehicle 2.31±0.18 g): 1.83 ± 0.28 g | average daily food intake decreased compared to the vehicle control group ([4]; first week, medium dose 12 mg/kg i.p.): 27.3% | average daily food intake ([4]; first week, medium dose 12 mg/kg i.p., vehicle 2.31±0.18 g): 1.68 ± 0.35 g | body weight reduced by ([4]; high dose 20 mg/kg i.p., 14 days): 26.42±0.73% | body weight two weeks after administration ([4]; high dose 20 mg/kg i.p., 14 days, from 42.14±1.37 g): 30.07 ± 1.23 g | lipid droplets in the liver (oil red O and H&E staining) ([4]; high-dose (20 mg/kg) i.p.): completely disappeared | liver function indexes AST and ALT vs vehicle control group ([4]; high-dose (20 mg/kg) i.p.): significantly lower | average daily food intake ([4]; high-dose (20 mg/kg) i.p., first day of administration, day 0: 2.0±0.18 g): 0.60 ± 0.02 g | body weight ([4]; high-dose (20 mg/kg) i.p., first day, from 42.09±0.42 g): 40.98 ± 0.57 g | average daily food intake [4, 10]: 0.47 ± 0.16 g | body weight [4, 10]: 39.94 ± 0.62 g | average daily food intake [4, 11]: 0.39 ± 0.11 g | body weight [4, 11]: 39.23 ± 0.71 g | blood glucose tolerance (GTT) and insulin tolerance (ITT) ([4]; high-dose administration group): significantly improved | effect on suppressing appetite and reducing body weight (summary) ([4]; intraperitoneal injection, obese mice): strong effect | body weight reduced by ([4]; low dose 4 mg/kg i.p., 14 days): 9.88±2.37% | body weight two weeks after administration ([4]; low dose 4 mg/kg i.p., 14 days, from 42.50±1.71 g): 38.46 ± 0.95 g | fat contents vs obese model mice (NMR body fat quantitative analysis) [4, 12]: significantly lower | lean body masses (NMR body fat quantitative analysis) [4, 12]: no significant change | fasting blood glucose level [4, 13]: reduce to a normal level; also recorded: return to the normal levels | weights of liver and epididymal fat compared to the vehicle control group [4, 13]: decrease in a dose-dependent manner | body weight reduced by ([4]; medium dose 12 mg/kg i.p., 14 days): 13.15±2.73% | body weight two weeks after administration ([4]; medium dose 12 mg/kg i.p., 14 days, from 41.41.±1.17 g): 35.45 ± 1.15 g | average daily food intake decreased compared to the vehicle control group ([4]; second mention of 'first week', high dose 20 mg/kg i.p.): 68.8% | average daily food intake ([4]; second mention of 'first week', high dose 20 mg/kg i.p., vehicle 2.47±0.13 g): 0.70 ± 0.16 g | average daily food intake decreased compared to the vehicle control group ([4]; second mention of 'first week', low dose 4 mg/kg i.p.): 37.2% | average daily food intake ([4]; second mention of 'first week', low dose 4 mg/kg i.p., vehicle 2.47±0.13 g): 1.55 ± 0.12 g | average daily food intake decreased compared to the vehicle control group ([4]; second mention of 'first week', medium dose 12 mg/kg i.p.): 45.3% | average daily food intake ([4]; second mention of 'first week', medium dose 12 mg/kg i.p., vehicle 2.47±0.13 g): 1.35 ± 0.18 g | body weights [5]: no decrease but an upward trend | effect on the food intake and body weight (summary) [5]: no effect | food intakes compared to the vehicle control group [5]: no significant change | average daily food intake reduced by [6]: 30% | body weight reduced by [6]: 16% | average daily food intake reduced by [7]: 50% | body weight reduced by [7]: 21% | mRNA transcription levels of inflammatory factors IL-1β, TNF-α, IL-6 and MCP-1 [8]: down-regulate | body weight increase [9]: 15% | food intakes compared with the vehicle control group [9]: do not change significantly
